Like-named read-outs stand apart in the source and are kept apart here.

The text below walks through data of publication PMC3997483, “Aminostyrylbenzofuran Directly Reduces Oligomeric Amyloid-β and Reverses Cognitive Deficits in Alzheimer Transgenic Mice” (PLoS ONE, 2014).

Data set [1] is described as follows: Pharmacokinetics IV/PO in monkeys. The format is in vivo, cynomolgus monkeys. The following applies: for AUC(0-t): read-out: AUC0–24h. As for the experimental part: Pharmacokinetics profile of KMS88009 was obtained using ICR mice, SD rats, beagle dogs and cynomolgus monkeys. Animals were fasted overnight before KMS88009 administration. Mice were divided into 2 groups to receive KMS88009 as a single dose of 2.1 mg/kg intravenous (IV) bolus or 10 mg/kg orally (PO) by gavage. Additionally, KMS88009 was administered orally to estimate the BBB penetration in mice (10, 30 and 100 mg/kg). […] Dog received KMS88009 either as an IV bolus (1 mg/kg) via the great saphenous vein or by oral gavage (4 mg/kg). […] Vehicle for IV and PO administration was DMSO/tween-20/saline (3.3∶19.8∶79.6). […]. Brain samples were weighed and Daunce-homogenized in 10-fold volume of ice-chilled 4% bovine serum albumin (BSA) solution at room temperature. Plasma and brain homogenates were kept frozen at −70°C until analysis. The levels of KMS88009 were determined by the LC-MS/MS analysis. Pharmacokinetic parameters, time to the maximum concentration (Tmax), maximum concentration (Cmax), elimination half-life (T1/2), volume of distribution (Vd), clearance (Cl) and mean residual time (MRT), of KMS88009 were calculated based on plasma concentration-time data by a non-compartmental method using WinNonlin Version 5.2 (Pharsight, USA). Area under the curve from 0 to 24 hr (AUC0-24h) and area under the curve from 0 to infinity (AUCINF) were obtained by linear and log linear trapezoidal summations.

The subject of another data set is APP/PS1 TG mice. The data set is described as follows: Contextual fear conditioning, therapeutic trial. The format is in vivo, mouse. The following applies: PO 30 mg/kg/day, 3 months, TG 20.0%. As for the experimental part:
Behavioral tests were performed in the following sequence: Y-maze (day 1), Morris water maze (day 4 to 12) and contextual fear conditioning (day 26 to 27). To reduce stress, contextual fear conditioning was carried out 2 weeks after the Morris water maze task. In the therapeutic trial, APP/PS1 TG mice were treated with KMS88009 (30 mg/kg/day) for 3 months from 9 to 12 months of age. Y-maze tests short-term spatial working memory. Y-maze is a 3-armed (40 L×10 W×12 H cm) horizontal maze in which the arms are symmetrically disposed at 120° angles from each other. Mice were placed at the end of one arm and allowed to move freely through the maze during a 5-min session. Arm entry was considered completed when the hind paws of the mouse were completely placed in the arm. Alternation was defined as successive entries into the 3 arms on overlapping triplet sets. The series of arm entries was recorded via video recorders. […] During each trial session, the time taken to find the hidden platform (latency) was recorded using a video camera-based Ethovision System (Nodulus, Nertherlands). […] Swimming time was recorded during mice were in the pool quadrant where the platform had been previously located. […] Fear conditioning task was measured to test the ability to learn and remember an association between an aversive experience and environmental cues. […] Freezing response was measured without CS or US. […]

A further data set can be described thus: in vitro. The following applies: monkey, liver microsomes.
Where [2] appears, read: cynomolgus monkey, plasma, monkey IV 0.77 mg/kg.
Where [3] appears, read: cynomolgus monkey, plasma, monkey PO 5.6 mg/kg.
Where [4] appears, read: cynomolgus monkey, monkey IV 0.77 mg/kg, plasma.
Where [5] appears, read: cynomolgus monkey, monkey PO 5.6 mg/kg, plasma.

For the compound `COc1ccc2cc(C=Cc3ccc(N(C)C)cc3)oc2c1` [KMS88009, 6-methoxy-2-(4-dimethylaminostyryl) benzofuran], in data set [1] (setting [2]), the MRT last came to 3.6 ± 0.5 h, the Vd was 4.4 ± 1.1 L/kg, the clearance was 8.33 mL/min/kg and the half-life is 348 ± 48 min. In data set [1] (setting [3]), the mean residence time (MRT last) is 5.9 ± 0.6 h, the time of peak concentration (Tmax) amounted to 2.7 ± 1.2 h and the half-life was 258 ± 12 min. In data set [1] (setting [4]), the AUC(0-inf) was found to be 1590 ± 576 ng·h/mL and the AUC(0-t) was determined as 1540 ± 550 ng·h/mL. For the same compound, in data set [1] (setting [5]), the AUC(0-inf) is 3920 ± 1480 ng·h/mL, the concentration peaked (Cmax) at 505 ± 78.3 ng/mL and the AUC(0-t) is 3810 ± 1430 ng·h/mL. In data set [1] (monkey PO 5.6 mg/kg vs IV 0.77 mg/kg), the BA came to 34.1%. The “freezing response (contextual fear conditioning)” value in the data set on APP/PS1 TG mice came to 48.3%. Moreover, in “in vitro”, the half-life at 5 µM is 35.2 ± 0.6 min and the fraction remaining at 1 h, 5 µM turned out to be 30.9 ± 0.2%.
